{"source": "ChEMBL document CHEMBL4507268", "about": "(2021)", "conditions_in_all_cases": "Compound concentration 1000.0 nM", "key": {"[1]": {"tested_on": "Epidermal growth factor receptor (Homo sapiens), P00533 [UNDEFINED MUTATION]", "sequence (P00533 whole entry, looked up, change not shown)": "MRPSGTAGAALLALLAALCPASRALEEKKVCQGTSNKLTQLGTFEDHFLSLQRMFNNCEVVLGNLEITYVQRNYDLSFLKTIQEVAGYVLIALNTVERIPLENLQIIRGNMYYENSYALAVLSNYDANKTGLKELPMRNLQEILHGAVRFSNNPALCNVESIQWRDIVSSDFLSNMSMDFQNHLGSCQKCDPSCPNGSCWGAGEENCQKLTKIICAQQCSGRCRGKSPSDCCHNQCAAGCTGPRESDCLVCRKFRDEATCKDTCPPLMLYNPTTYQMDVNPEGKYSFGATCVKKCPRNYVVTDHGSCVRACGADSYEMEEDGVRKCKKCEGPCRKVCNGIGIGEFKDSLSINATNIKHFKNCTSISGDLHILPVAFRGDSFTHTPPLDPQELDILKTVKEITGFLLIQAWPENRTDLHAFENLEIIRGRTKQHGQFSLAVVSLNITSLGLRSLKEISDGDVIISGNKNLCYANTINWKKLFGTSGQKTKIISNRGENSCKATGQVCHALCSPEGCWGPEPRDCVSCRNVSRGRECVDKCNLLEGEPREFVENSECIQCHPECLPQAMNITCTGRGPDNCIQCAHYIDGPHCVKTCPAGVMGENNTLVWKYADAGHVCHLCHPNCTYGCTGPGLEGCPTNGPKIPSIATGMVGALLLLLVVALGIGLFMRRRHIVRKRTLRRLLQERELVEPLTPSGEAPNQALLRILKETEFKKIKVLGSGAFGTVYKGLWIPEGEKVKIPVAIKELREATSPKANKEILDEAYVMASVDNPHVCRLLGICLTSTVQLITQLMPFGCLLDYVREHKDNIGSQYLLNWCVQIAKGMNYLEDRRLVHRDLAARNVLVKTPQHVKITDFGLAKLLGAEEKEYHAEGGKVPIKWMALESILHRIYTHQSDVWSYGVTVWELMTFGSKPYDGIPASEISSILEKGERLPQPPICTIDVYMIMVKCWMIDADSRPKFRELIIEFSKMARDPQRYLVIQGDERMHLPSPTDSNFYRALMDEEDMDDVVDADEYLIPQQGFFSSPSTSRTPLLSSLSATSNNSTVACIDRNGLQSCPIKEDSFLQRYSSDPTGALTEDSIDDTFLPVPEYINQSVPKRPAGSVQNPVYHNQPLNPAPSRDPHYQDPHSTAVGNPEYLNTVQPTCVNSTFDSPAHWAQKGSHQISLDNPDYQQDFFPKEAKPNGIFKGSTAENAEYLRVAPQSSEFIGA"}, "[2]": {"tested_on": "Epidermal growth factor receptor (Homo sapiens), P00533 [UNDEFINED MUTATION]", "remark": "listed apart in the source"}, "[3]": {"target": "MAP kinase-interacting serine/threonine-protein kinase 2 (Homo sapiens) (UniProt Q9HBH9)", "sequence (Q9HBH9 whole entry, looked up)": "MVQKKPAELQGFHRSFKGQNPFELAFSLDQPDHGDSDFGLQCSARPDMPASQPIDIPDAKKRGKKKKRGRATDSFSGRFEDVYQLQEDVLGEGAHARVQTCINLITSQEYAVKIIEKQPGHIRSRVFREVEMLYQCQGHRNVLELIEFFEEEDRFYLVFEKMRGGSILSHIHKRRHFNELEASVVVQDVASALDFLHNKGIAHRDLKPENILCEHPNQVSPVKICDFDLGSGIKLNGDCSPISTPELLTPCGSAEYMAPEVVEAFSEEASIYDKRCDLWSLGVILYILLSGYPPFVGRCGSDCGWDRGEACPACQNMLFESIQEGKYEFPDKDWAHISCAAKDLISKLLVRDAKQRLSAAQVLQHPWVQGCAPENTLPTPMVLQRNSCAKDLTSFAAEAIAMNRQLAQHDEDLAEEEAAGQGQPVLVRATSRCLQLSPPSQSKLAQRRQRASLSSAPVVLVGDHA"}, "[4]": {"target": "Phosphatidylinositol 4-kinase beta (Homo sapiens) (UniProt Q9UBF8)", "sequence (Q9UBF8 2-816 limits assumed)": "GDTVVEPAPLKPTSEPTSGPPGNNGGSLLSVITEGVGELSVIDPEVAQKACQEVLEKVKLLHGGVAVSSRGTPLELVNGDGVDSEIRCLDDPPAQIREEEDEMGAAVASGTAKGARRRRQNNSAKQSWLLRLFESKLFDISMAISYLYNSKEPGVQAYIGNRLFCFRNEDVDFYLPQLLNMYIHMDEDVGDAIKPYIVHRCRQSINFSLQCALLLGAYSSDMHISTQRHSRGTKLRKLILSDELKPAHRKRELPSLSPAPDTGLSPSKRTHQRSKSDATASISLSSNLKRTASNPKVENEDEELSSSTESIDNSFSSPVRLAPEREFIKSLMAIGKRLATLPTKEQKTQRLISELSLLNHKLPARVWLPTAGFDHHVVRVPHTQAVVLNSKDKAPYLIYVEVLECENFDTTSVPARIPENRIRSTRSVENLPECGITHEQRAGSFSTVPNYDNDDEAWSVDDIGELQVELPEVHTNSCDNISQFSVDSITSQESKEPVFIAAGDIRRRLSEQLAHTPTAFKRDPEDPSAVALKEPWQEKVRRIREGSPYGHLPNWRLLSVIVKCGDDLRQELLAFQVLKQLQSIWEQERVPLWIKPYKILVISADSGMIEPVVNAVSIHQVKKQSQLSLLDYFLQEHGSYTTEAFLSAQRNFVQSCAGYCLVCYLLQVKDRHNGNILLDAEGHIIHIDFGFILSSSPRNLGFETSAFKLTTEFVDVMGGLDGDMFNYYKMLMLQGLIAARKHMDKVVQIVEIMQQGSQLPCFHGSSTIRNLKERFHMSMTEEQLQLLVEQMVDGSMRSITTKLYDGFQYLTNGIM"}, "[5]": {"target": "T1, cGMP-dependent protein kinase 1 (Homo sapiens) (UniProt Q13976)", "T1 sequence (whole entry)": "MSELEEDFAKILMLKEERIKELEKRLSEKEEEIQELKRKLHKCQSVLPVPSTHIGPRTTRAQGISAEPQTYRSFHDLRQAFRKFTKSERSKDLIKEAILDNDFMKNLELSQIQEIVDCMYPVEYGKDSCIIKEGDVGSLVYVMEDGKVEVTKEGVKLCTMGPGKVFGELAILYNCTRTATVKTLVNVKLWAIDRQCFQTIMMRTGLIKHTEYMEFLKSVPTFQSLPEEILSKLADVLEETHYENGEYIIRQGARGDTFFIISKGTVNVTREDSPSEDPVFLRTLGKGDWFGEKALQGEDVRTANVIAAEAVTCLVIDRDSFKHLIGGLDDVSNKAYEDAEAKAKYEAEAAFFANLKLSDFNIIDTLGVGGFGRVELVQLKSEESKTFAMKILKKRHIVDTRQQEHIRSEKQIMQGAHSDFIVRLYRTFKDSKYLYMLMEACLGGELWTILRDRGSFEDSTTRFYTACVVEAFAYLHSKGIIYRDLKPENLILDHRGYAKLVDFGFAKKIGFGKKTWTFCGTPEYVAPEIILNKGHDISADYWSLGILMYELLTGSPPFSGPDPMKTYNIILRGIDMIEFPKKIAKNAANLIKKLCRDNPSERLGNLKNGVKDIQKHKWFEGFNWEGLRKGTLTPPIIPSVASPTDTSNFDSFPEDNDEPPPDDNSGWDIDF"}, "[6]": {"target": "T2, Serine/threonine-protein kinase TBK1 (Homo sapiens) (UniProt Q9UHD2)", "T2 sequence (whole entry)": "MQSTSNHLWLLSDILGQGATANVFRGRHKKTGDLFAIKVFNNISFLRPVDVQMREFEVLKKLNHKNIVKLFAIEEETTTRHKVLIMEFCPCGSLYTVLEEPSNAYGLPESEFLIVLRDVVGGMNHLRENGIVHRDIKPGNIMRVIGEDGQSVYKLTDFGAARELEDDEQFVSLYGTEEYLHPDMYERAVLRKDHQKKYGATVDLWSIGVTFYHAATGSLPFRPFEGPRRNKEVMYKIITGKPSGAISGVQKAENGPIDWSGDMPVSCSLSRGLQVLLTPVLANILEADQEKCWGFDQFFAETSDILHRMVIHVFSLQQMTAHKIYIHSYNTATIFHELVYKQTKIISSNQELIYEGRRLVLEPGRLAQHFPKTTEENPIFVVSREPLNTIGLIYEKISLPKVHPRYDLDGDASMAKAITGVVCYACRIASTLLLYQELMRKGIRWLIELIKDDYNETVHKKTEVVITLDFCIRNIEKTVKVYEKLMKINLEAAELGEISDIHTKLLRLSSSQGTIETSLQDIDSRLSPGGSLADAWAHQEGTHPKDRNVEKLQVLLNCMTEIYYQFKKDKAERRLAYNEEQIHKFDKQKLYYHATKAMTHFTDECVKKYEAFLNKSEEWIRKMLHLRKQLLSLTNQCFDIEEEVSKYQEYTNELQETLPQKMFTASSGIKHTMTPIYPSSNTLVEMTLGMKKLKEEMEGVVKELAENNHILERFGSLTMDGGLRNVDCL"}, "[7]": {"target": "T3, Serine/threonine-protein kinase tousled-like 1 (Homo sapiens) (UniProt Q9UKI8)", "T3 sequence (whole entry)": "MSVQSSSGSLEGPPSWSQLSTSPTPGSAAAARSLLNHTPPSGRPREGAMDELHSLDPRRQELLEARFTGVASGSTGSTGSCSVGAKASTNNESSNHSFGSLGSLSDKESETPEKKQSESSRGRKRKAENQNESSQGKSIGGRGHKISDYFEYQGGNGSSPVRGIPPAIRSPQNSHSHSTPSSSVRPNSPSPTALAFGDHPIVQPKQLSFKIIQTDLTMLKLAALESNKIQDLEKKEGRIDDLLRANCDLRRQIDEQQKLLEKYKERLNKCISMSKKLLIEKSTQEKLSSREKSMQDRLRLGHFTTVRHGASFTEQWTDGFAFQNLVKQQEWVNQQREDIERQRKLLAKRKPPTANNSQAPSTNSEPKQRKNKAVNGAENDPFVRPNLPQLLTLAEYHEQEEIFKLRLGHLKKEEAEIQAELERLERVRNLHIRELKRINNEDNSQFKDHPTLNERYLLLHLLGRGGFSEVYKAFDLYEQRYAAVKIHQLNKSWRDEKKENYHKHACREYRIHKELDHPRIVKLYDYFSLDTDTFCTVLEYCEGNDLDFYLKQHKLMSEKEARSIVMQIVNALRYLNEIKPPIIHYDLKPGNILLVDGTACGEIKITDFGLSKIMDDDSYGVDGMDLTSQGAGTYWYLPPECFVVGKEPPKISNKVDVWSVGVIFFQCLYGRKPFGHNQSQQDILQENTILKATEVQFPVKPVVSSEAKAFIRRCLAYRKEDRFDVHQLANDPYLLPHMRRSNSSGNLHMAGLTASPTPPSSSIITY"}, "[8]": {"target": "T4, Tyrosine-protein kinase TXK (Homo sapiens) (UniProt P42681)", "T4 sequence (whole entry)": "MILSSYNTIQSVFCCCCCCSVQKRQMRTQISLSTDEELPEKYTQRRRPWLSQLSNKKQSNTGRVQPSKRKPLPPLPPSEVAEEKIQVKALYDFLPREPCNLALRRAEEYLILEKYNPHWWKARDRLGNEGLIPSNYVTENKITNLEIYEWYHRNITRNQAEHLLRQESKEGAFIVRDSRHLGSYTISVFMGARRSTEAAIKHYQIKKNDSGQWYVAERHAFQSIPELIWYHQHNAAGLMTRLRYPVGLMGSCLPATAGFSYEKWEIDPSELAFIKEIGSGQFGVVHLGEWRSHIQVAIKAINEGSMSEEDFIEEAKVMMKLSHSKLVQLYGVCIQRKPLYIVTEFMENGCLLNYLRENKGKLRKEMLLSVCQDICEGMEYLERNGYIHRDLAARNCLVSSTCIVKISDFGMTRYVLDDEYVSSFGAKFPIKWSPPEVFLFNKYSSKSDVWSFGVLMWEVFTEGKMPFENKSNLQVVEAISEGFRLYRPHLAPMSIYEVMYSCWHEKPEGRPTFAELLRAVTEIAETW"}}}
{"smiles": "Cc1nc(C2CCN(C(=O)c3ccc(OC(F)(F)F)cc3N)CC2)c2ncc(N3CCN(C)CC3)cc2n1", "note": "[BAY-693]", "values": [{"measurement": "residual activity", "setting": "[1]", "result": 70, "unit": "%"}, {"measurement": "residual activity", "setting": "[2]", "result": 49, "unit": "%"}, {"measurement": "residual activity", "setting": "[3]", "result": 100, "unit": "%"}, {"measurement": "residual activity", "setting": "[4]", "result": 84, "unit": "%"}, {"measurement": "residual activity", "setting": "[5]", "result": 100, "unit": "%"}, {"measurement": "residual activity", "setting": "[6]", "result": 100, "unit": "%"}, {"measurement": "residual activity", "setting": "[7]", "result": 100, "unit": "%"}, {"measurement": "residual activity", "setting": "[8]", "result": 100, "unit": "%"}]}
{"smiles": "CN1CCN(c2cnc3c(C4CCN(C(=O)c5ccc(OC(F)(F)F)cc5N)CC4)ncnc3c2)CC1", "note": "[BAY-885]", "values": [{"measurement": "residual activity", "setting": "[1]", "result": 83, "unit": "%"}, {"measurement": "residual activity", "setting": "[2]", "result": 38, "unit": "%"}, {"measurement": "residual activity", "setting": "[3]", "result": 100, "unit": "%"}, {"measurement": "residual activity", "setting": "[4]", "result": 96, "unit": "%"}, {"measurement": "residual activity", "setting": "[5]", "result": 83, "unit": "%"}, {"measurement": "residual activity", "setting": "[6]", "result": 61, "unit": "%"}, {"measurement": "residual activity", "setting": "[7]", "result": 100, "unit": "%"}, {"measurement": "residual activity", "setting": "[8]", "result": 88, "unit": "%"}]}
